Results as given in ChEMBL document CHEMBL5120881, “Silencing Tautomerization to Isolate Unstable Physalins from Physalis minima” (J Nat Prod, 2022).

How the values were obtained:
[1] = Cytotoxicity against mouse RAW264.7 cells assessed as cell viability at 10 uM incubated for 48 hrs by CCK8 assay; format: toxicity, cell-based; conditions: read-out: Activity
A549 = assay: Antiproliferative activity against human A549 cells assessed as reduction in cell viability incubated for 48 hrs by CCK8 assay; format: functional, cell-based; conditions: A549, 48 h
HepG2 = assay: Antiproliferative activity against human HepG2 cells assessed as reduction in cell viability incubated for 48 hrs by CCK8 assay; format: functional, cell-based; conditions: HepG2, 48 h
MCF7 = assay: Antiproliferative activity against human MCF7 cells assessed as reduction in cell viability incubated for 48 hrs by CCK8 assay; format: functional, cell-based; conditions: MCF7, 48 h
SGC-7901 = assay: Antiproliferative activity against human SGC-7901 cells assessed as reduction in cell viability incubated for 48 hrs by CCK8 assay; format: functional, cell-based; conditions: SGC-7901, 48 h
RAW264.7 = assay: Antiinflammatory activity in mouse RAW264.7 assessed as inhibition of LPS-stimulated NO production pretreated with LPS followed by compund addition by Griess reagent based microplate reader assay; format: functional, cell-based; conditions: for IC50: Mus musculus, RAW264.7
[2] = Cytotoxicity against human L02 cells assessed as cell viability at 10 uM incubated for 48 hrs by CCK8 assay; format: toxicity, cell-based; conditions: read-out: Activity
[3] = Cytotoxicity against human L02 cells assessed as reduction in cell viability incubated for 48 hrs by CCK8 assay; format: toxicity, cell-based
[4] = Cytotoxicity against mouse RAW264.7 cells assessed as reduction in cell viability incubated for 48 hrs by CCK8 assay; format: toxicity, cell-based

| SMILES | IC50 (A549) [µM] | IC50 (HepG2) [µM] | IC50 (MCF7) [µM] | IC50 (SGC-7901) [µM] | IC50 (RAW264.7) [µM] | viability at 48 h, 10 µM [1] [%] | inhibition (INH) (RAW264.7) [%] | viability at 48 h, 10 µM [2] [%] | IC50 at 48 h [3] [µM] | IC50 at 48 h [4] [µM] |
| --- | --- | --- | --- | --- | --- | --- | --- | --- | --- | --- |
| C=C1C(=O)O[C@@H]2C[C@@]1(C)[C@@H]1C(=O)[C@@]3(O)O[C@]14[C@@]2(C)OC(=O)[C@@]4(O)CC[C@H]1[C@H]3CC=C2CC=CC(=O)[C@@]21C | 8.9 | 13.2 | 7.6 | 2.8 |  | 90.7 | <50 | 94.2 |  |  |
| C[C@@]12C[C@H]3OC(=O)[C@@H]1CO[C@@]14O[C@@]5([C@H]2C1=O)[C@@]3(C)OC(=O)[C@@]5(O)CC[C@H]1[C@H]4C[C@@H](O)[C@@]2(Cl)CC=CC(=O)[C@]12C | 21.7 | 24.7 | 12.5 | 12.7 |  | 98.3 | <50 | 95.3 |  |  |
| C=C1C(=O)O[C@@H]2C[C@@]1(C)[C@@H]1C(=O)[C@@]3(O)O[C@]14[C@@]2(C)OC(=O)[C@@]4(O)CC[C@H]1[C@H]3C[C@H]2O[C@]23CC=CC(=O)[C@]13C | 0.2 | 1.3 | 0.9 | 0.3 |  | 85.2 | <50 | 90.2 |  |  |
| C[C@]12C(=O)CC=CC1=CC[C@@H]1[C@@H]2CC[C@]2(O)C(=O)O[C@@]3(C)[C@H]4C[C@]5(C)[C@@H](CO[C@]16O[C@@]32[C@H]5C6=O)C(=O)O4 | 4.3 | 9.8 | 2.5 | 8.9 |  | 94.2 | <50 | 92.5 |  |  |
| C[C@]12C(=O)C=CCC1=CC[C@@H]1[C@@H]2CC[C@]2(O)C(=O)O[C@@]3(C)[C@H]4C[C@]5(C)[C@@H](CO[C@@]16O[C@@]32[C@H]5C6=O)C(=O)O4 [PHYSALIN B] | 11.9 | 11.7 | 11.2 | 12.1 |  | 95.8 | <50 | 97.8 |  |  |
| C[C@]12C(=O)C=CC=C1[C@@H](O)C[C@@H]1[C@@H]2CC[C@@]2(O)C(=O)O[C@@]3(C)[C@H]4C[C@]5(C)[C@@H](CO[C@@]16O[C@]23[C@H]5C6=O)C(=O)O4 [PHYSALIN G] | > 50 | > 50 | > 50 | > 50 | 13.5 |  |  |  | > 50 | > 50 |
| O=C(CCCCCCC(=O)Nc1ccccc1)NO [VORINOSTAT] |  |  |  |  |  | 87 |  | 92.5 |  |  |

Second part, led by results:

| IC50 (A549) [µM] | IC50 (HepG2) [µM] | IC50 (MCF7) [µM] | IC50 (SGC-7901) [µM] | IC50 (RAW264.7) [µM] | SMILES | viability at 48 h, 10 µM [1] [%] | inhibition (INH) (RAW264.7) [%] | viability at 48 h, 10 µM [2] [%] | IC50 at 48 h [3] [µM] | IC50 at 48 h [4] [µM] |
| --- | --- | --- | --- | --- | --- | --- | --- | --- | --- | --- |
| 4.2 | 9.4 | 1.2 | 9.1 |  | C=C1C(=O)O[C@@H]2C[C@@]1(C)[C@@H]1C(=O)[C@@]3(O)O[C@]14[C@@]2(C)OC(=O)[C@@]4(O)CC[C@H]1[C@H]3CC=C2C=CCC(=O)[C@@]21C | 91.4 | <50 | 95.4 |  |  |
| > 50 | > 50 | > 50 | > 50 | 56.6 | C[C@@H]1C(=O)O[C@@H]2C[C@@]1(C)[C@@H]1C(=O)[C@@]3(O)O[C@]14[C@@]2(C)OC(=O)[C@@]4(O)CC[C@H]1[C@H]3C[C@@H](O)[C@@]2(O)CC=CC(=O)[C@]12C |  |  |  | > 50 | > 50 |
| > 50 | > 50 | > 50 | > 50 | 23.8 | CO[C@]12C=CCC(=O)[C@]1(C)[C@H]1CC[C@]3(O)C(=O)O[C@@]4(C)[C@H]5C[C@]6(C)[C@@H](CO[C@]7(O[C@@]43[C@H]6C7=O)[C@@H]1C[C@H]2O)C(=O)O5 |  |  |  | > 50 | > 50 |
| 5.4 | 9.8 | 7.3 | 12.4 |  | C=C1C(=O)O[C@@H]2C[C@@]1(C)[C@@H]1C(=O)[C@@]3(O)O[C@]14[C@@]2(C)OC(=O)[C@@]4(O)CC[C@H]1[C@H]3C[C@@H](O)[C@@]2(O)CC=CC(=O)[C@]12C | 93.5 | <50 | 97.5 |  |  |
| 11.4 | 14 | 10.6 | 7.8 | 25.6 | C=C1C(=O)O[C@@H]2C[C@@]1(C)[C@@H]1C(=O)[C@@]3(O)O[C@]14[C@@]2(C)OC(=O)[C@@]4(O)CC[C@H]1[C@H]3C[C@@H](O)[C@@]2(OC)CC=CC(=O)[C@]12C | 94.2 |  | 98.1 |  |  |
| 7 | 8.3 | 12.5 | 9.8 |  | C=C1C(=O)O[C@@H]2C[C@@]1(C)[C@@H]1C(=O)[C@@]3(O)O[C@]14[C@@]2(C)OC(=O)[C@@]4(O)CC[C@H]1[C@H]3C[C@@H](O)C2=CC=CC(=O)[C@@]21C | 92.3 | <50 | 95.2 |  |  |
| 2 | 4.9 | 2.1 | 1.1 |  | C=C1C(=O)O[C@@H]2C[C@@]1(C)[C@@H]1C(=O)[C@@]3(O)O[C@]14[C@@]2(C)OC(=O)[C@@]4(O)CC[C@H]1[C@H]3C[C@@H](O)[C@@]2(Cl)CC=CC(=O)[C@]12C | 90.1 | <50 | 98.1 |  |  |
| 12.2 | 16.8 | 10.5 | 12.1 |  | C[C@]12C(=O)C=CCC1=CC[C@@H]1[C@@H]2CC[C@]2(O)C(=O)O[C@@]3(C)[C@H]4C[C@@]5(C)[C@@H]6C(=O)[C@@]1(OC[C@@]5(O)C(=O)O4)O[C@@]632 | 95.5 |  | 97.3 |  |  |
